Read-outs that look alike come from different tables or passages of the source.
How the values were obtained:
A549 = test: 72-h MTT cytotoxicity assay, A549; assay type: cell-based, human; conditions: Table 1, 72 h
Procedure: In short: cells were seeded into 96-well plates according to doubling time and incubated overnight at 37° C. Test compounds were made up in DMSO and a 1/3 dilution series prepared in 100 μL cell media, added to cells (in triplicates) and incubated for 72 ho at 37° C. MTT was made up as a stock of 5 mg/mL in cell media and filter-sterilised. Media was removed from cells followed by a wash with 200 μL PBS. MTT solution was then added at 20 μL per well and incubated in the dark at 37° C. for 4 h. MTT solution was removed and cells again washed with 200 μL PBS. MTT dye was solubilised with 200 μL per well of DMSO with agitation.

HT29 = test: 72-h MTT cytotoxicity assay, HT29; assay type: cell-based; conditions: Homo sapiens, HT-29, read-out: 72-h MTT in vitro IC50 (μM) HT29; Table 1; 72 h
Procedure: (§1) The compounds from the examples above were subjected to a standard cellular proliferation assay using human tumour cell lines obtained from the ATCC (American Type Culture Collection, 10801 University Boulevard, Manessas, Va. 20110-2209, USA). Standard 72-h MTT (thiazolyl blue; 3-[4,5-dimethylthiazol-2-yl]-2,5-diphenyltetrazolium bromide) assays were performed (Haselsberger, K.; Peterson, D. C.; Thomas, D. G.; Darling, J. L. Anti Cancer Drugs 1996, 7, 331-8; Loveland, B. E.; Johns, T. G.; Mackay, I. R.; Vaillant, F.; Wang, Z. X.; Hertzog, P. J. Biochemistry International 1992, 27, 501-10). In short: cells were seeded into 96-well plates according to doubling time and incubated overnight at 37° C. Test compounds were made up in DMSO and a 1/3 dilution series prepared in 100 μL cell media, added to cells (in triplicates) and incubated for 72 ho at 37° C. MTT was made up as a stock of 5 mg/mL in cell media and filter-sterilised. Media was removed from cells followed by a wash with 200 μL PBS. MTT solution was then added at 20 μL per well and incubated in the dark at 37° C. for 4 h. MTT solution was removed and cells again washed with 200 μL PBS. MTT dye was solubilised with 200 μL per well of DMSO with agitation.

Saos-2 = test: 72-h MTT cytotoxicity assay, Saos-2; assay type: cell-based; conditions: Homo sapiens, SAOS-2, read-out: 72-h MTT in vitro IC50 (μM) Saos-2; Table 1; 72 h
Procedure: as §1

CDK2/cyclin E = molecular target: T1, CDK2/cyclin E (Homo sapiens, UniProt P24941); test: Kinase assay CDK2/cyclin E; assay type: biochemical; conditions: Table 1; read-out: Kinase inhibition, IC50 (μM) CDK2/E
T1 construct: His6

CDK4/cyclin D1 = CDK4/cyclin D1 (Homo sapiens, UniProt P11802); test: Kinase assay CDK4/cyclin D1;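 note: Enzyme: His6-tagged recombinant human CDK4 produced in baculovirus-infected Sf9 insect cells and purified by metal-chelate chromatography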
CDK4/cyclin D1, sequence (P11802 whole entry): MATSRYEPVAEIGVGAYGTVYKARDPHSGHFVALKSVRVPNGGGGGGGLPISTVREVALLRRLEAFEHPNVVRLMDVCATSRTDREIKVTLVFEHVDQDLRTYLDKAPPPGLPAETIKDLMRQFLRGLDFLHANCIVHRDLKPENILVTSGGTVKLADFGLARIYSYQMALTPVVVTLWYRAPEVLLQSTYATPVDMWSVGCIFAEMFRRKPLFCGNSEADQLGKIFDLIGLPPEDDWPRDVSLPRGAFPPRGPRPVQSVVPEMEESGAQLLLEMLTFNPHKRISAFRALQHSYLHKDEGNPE
CDK4/cyclin D1, sequence (P24385 whole entry partner): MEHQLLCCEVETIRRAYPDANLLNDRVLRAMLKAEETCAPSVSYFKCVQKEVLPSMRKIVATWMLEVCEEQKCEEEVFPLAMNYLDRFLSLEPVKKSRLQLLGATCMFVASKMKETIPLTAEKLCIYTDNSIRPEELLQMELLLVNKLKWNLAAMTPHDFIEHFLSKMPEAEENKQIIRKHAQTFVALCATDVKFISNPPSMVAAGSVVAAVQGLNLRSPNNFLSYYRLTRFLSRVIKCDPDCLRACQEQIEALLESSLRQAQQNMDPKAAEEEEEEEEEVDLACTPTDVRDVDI

[1] = Homo sapiens, A549, read-out: 72-h MTT in vitro IC50 (μM) A549
[2] = read-out: Kinase inhibition, IC50 (μM) CDK4/D1, Table 1

Row | Structure (SMILES) | IC50 (CDK2/cyclin E) [µM] | IC50 (CDK4/cyclin D1) [µM] | IC50 (CDK4/cyclin D1; [2]) [µM] | IC50 (CDK4/cyclin D1; Kinase inhibition, IC50 (μM) CDK4/D1, Table 1) [µM] | IC50 (A549; read-out: 72-h MTT in vitro IC50 (μM) A549) [µM] | IC50 (HT29) [µM] | IC50 (Saos-2) [µM] | IC50 (A549; [1]) [µM]
1 | Cc1nc(N)sc1-c1ccnc(Nc2cccc([N+](=O)[O-])c2)n1 [Compound 1, [4-(2-Amino-4-methyl-thiazol-5-yl)-pyrimidin-2-yl]-(3-nitro-phenyl)-amine] | – | – | – | – | 0.22 | 0.34 | 0.42 | –
2 | Cc1nc(N)sc1-c1ccnc(Nc2ccc(N(C)C)cc2)n1 [Compound 2, N-[4-(2-Amino-4-methyl-thiazol-5-yl)-pyrimidin-2-yl]-N^1,N^1-dimethyl-benzene-1,4-diamine] | – | – | – | – | – | 2.88 | 1.54 | 2.37
3 | Cc1nc(N)sc1-c1ccnc(Nc2ccc(Cl)cc2)n1 [Compound 3, [4-(2-Amino-4-methyl-thiazol-5-yl)-pyrimidin-2-yl]-(4-chloro-phenyl)-amine] | 0.43 | 0.46 | – | – | – | 4.01 | 2.61 | 2.94
4 | Cc1nc(N)sc1-c1ccnc(Nc2ccc(C(F)(F)F)cc2)n1 [Compound 7, [4-(2-Amino-4-methyl-thiazol-5-yl)-pyrimidin-2-yl]-(4-trifluoromethyl-phenyl)-amine] | – | – | 5.83 | – | – | 1.26 | 0.65 | 1.03
5 | COc1ccc(Nc2nccc(-c3sc(N)nc3C)n2)cc1 [Compound 8, [4-(2-Amino-4-methyl-thiazol-5-yl)-pyrimidin-2-yl]-(4-methoxy-phenyl)-amine] | 0.34 | 0.42 | – | – | – | 2.71 | 1.32 | 1.55
6 | Cc1nc(N)sc1-c1ccnc(Nc2cccc(Cl)c2)n1 [Compound 9, [4-(2-Amino-4-methyl-thiazol-5-yl)-pyrimidin-2-yl]-(3-chloro-phenyl)-amine] | 0.02 | – | 0.07 | – | – | 0.79 | 0.43 | 0.55
7 | COc1ccc(Nc2nccc(-c3sc(C)nc3C)n2)cc1OC [Compound 23, (3,4-Dimethoxy-phenyl)-[4-(2,4-dimethyl-thiazol-5-yl)-pyrimidin-2-yl]-amine] | 0.03 | – | 1.06 | – | – | 1.17 | 2.02 | 1.57
8 | COc1ccc(Nc2nccc(-c3sc(C)nc3C)n2)cc1N(C)C [Compound 28, N^1-[4-(2,4-Dimethyl-thiazol-5-yl)-pyrimidin-2-yl]-4-methoxy-N^3,N^3-dimethyl-benzene-1,3-diamine] | 0.56 | 2.88 | – | – | – | 2.23 | 1.59 | 2.07
9 | Cc1c(-c2ccnc(Nc3ccc(O)cc3)n2)sc(=O)n1C [Compound 31, 5-[2-(4-Hydroxy-phenylamino)-pyrimidin-4-yl]-3,4-dimethyl-3H-thiazol-2-one] | – | – | – | – | – | 0.87 | 0.4 | 0.29
10 | Cc1c(-c2ccnc(Nc3cccc([N+](=O)[O-])c3)n2)sc(=O)n1C [Compound 32, 3,4-Dimethyl-5-[2-(3-nitro-phenylamino)-pyrimidin-4-yl]-3H-thiazol-2-one] | – | – | – | – | – | 0.01 | 0.1 | 0.01
11 | Cc1c(-c2ccnc(Nc3ccc(F)cc3)n2)sc(=O)n1C [Compound 34, 5-[2-(4-Fluoro-phenylamino)-pyrimidin-4-yl]-3,4-dimethyl-3H-thiazol-2-one] | – | – | – | – | – | 0.38 | 1.27 | 0.51
12 | Cc1c(-c2ccnc(Nc3cccc(O)c3)n2)sc(=O)n1C [Compound 37, 5-[2-(3-Hydroxy-phenylamino)-pyrimidin-4-yl]-3,4-dimethyl-3H-thiazol-2-one] | 0.12 | 1.41 | – | – | – | 1.99 | 0.98 | 0.66
13 | Cc1cc(Nc2nccc(-c3sc(=O)n(C)c3C)n2)ccc1F [Compound 41, 5-[2-(4-Fluoro-3-methyl-phenylamino)-pyrimidin-4-yl]-3,4-dimethyl-3H-thiazol-2-one] | – | – | – | – | – | 2.19 | 7.98 | 2.41
14 | Cc1ccc(Nc2nccc(-c3sc(=O)n(C)c3C)n2)cc1[N+](=O)[O-] [Compound 42, 3,4-Dimethyl-5-[2-(4-methyl-3-nitro-phenylamino)-pyrimidin-4-yl]-3H-thiazol-2-one] | – | – | – | – | – | 0.004 | 0.005 | 0.003
15 | Cc1nc(N(C)C)sc1-c1ccnc(Nc2cccc([N+](=O)[O-])c2)n1 [Compound 52, [4-(2-Dimethylamino-4-methyl-thiazol-5-yl)-pyrimidin-2-yl]-(3-nitro-phenyl)-amine] | – | – | – | 10 | – | 3.41 | 2.57 | 2.47
16 | Cc1nc(NCCO)sc1-c1ccnc(Nc2ccc(F)cc2)n1 [Compound 59, 2-{5-[2-(4-Fluoro-phenylamino)-pyrimidin-4-yl]-4-methyl-thiazol-2-ylamino}-ethanol] | 0.08 | 15 | – | – | – | – | – | –

The next lines start with results.

Row | IC50 (CDK2/cyclin E) [µM] | IC50 (CDK4/cyclin D1) [µM] | IC50 (CDK4/cyclin D1; [2]) [µM] | IC50 (CDK4/cyclin D1; Kinase inhibition, IC50 (μM) CDK4/D1, Table 1) [µM] | Structure (SMILES) | IC50 (A549; read-out: 72-h MTT in vitro IC50 (μM) A549) [µM] | IC50 (HT29) [µM] | IC50 (Saos-2) [µM] | IC50 (A549; [1]) [µM]
17 | 0.04 | 0.45 | – | – | Cc1nc(N)sc1-c1ccnc(Nc2cccc(O)c2)n1 [Compound 13, 3-[4-(2-Amino-4-methyl-thiazol-5-yl)-pyrimidin-2-ylamino]-phenol] | – | 2.87 | 0.52 | 0.95
18 | 0.2 | 0.64 | – | – | Cc1nc(N)sc1-c1ccnc(Nc2ccc(I)c([N+](=O)[O-])c2)n1 [Compound 14, [4-(2-Amino-4-methyl-thiazol-5-yl)-pyrimidin-2-yl]-(4-iodo-3-nitro-phenyl)-amine] | – | 0.28 | 0.31 | 0.29
19 | – | – | 3.28 | – | Cc1nc(C)c(-c2ccnc(Nc3ccc(CCO)cc3)n2)s1 [Compound 21, 2-{4-[4-(2,4-Dimethyl-thiazol-5-yl)-pyrimidin-2-ylamino]-phenyl}-ethanol] | – | 3.61 | 4.37 | 2.79
20 | – | – | 1.68 | – | COc1ccc(Nc2nccc(-c3sc(C)nc3C)n2)cc1O [Compound 24, 5-[4-(2,4-Dimethyl-thiazol-5-yl)-pyrimidin-2-ylamino]-2-methoxy-phenol] | – | 5.47 | 0.16 | 0.44
21 | 0.32 | 0.99 | – | – | CNc1nc(C)c(-c2ccnc(Nc3ccc(N(C)C)cc3)n2)s1 [Compound 29, N,N-Dimethyl-N′-[4-(4-methyl-2-methylamino-thiazol-5-yl)-pyrimidin-2-yl]-benzene-1,4-diamine] | – | 0.6 | 0.8 | 0.4
22 | 0.12 | 0.25 | – | – | CNc1nc(C)c(-c2ccnc(Nc3ccc(I)c([N+](=O)[O-])c3)n2)s1 [Compound 30, (4-Iodo-3-nitro-phenyl)-[4-(4-methyl-2-methylamino-thiazol-5-yl)-pyrimidin-2-yl]-amine] | – | 1.07 | 2.31 | 0.94
23 | 0.11 | 1.09 | – | – | Cc1c(-c2ccnc(Nc3ccc(Cl)cc3)n2)sc(=O)n1C [Compound 35, 5-[2-(4-Chloro-phenylamino)-pyrimidin-4-yl]-3,4-dimethyl-3H-thiazol-2-one] | – | 0.4 | 2.78 | 0.89
24 | 0.25 | 0.96 | – | – | COc1ccc(Nc2nccc(-c3sc(=O)n(C)c3C)n2)cc1 [Compound 36, 5-[2-(4-Methoxy-phenylamino)-pyrimidin-4-yl]-3,4-dimethyl-3H-thiazol-2-one] | – | 0.69 | 3.53 | 0.68
25 | 0.12 | 2.33 | – | – | Cc1c(-c2ccnc(Nc3ccc(F)c([N+](=O)[O-])c3)n2)sc(=O)n1C [Compound 38, 5-[2-(4-Fluoro-3-nitro-phenylamino)-pyrimidin-4-yl]-3,4-dimethyl-3H-thiazol-2-one] | – | 0.55 | 2.17 | 1.12
26 | 1.18 | – | 17.9 | – | Cc1cc(Nc2nccc(-c3sc(=O)n(C)c3C)n2)ccc1Cl [Compound 39, 5-[2-(4-Chloro-3-methyl-phenylamino)-pyrimidin-4-yl]-3,4-dimethyl-3H-thiazol-2-one] | – | – | – | –
27 | – | 3.82 | – | – | Cc1c(-c2ccnc(Nc3ccc(N(C)C)cc3)n2)sc(=O)n1C [Compound 43, 5-[2-(4-Dimethylamino-phenylamino)-pyrimidin-4-yl]-3,4-dimethyl-3H-thiazol-2-one] | – | 1.69 | 3.36 | 2.2

— US7427627B2, “N-(4-(4-methylthiazol-5-yl) pyrimidin-2-yl)-N-phenylamines as antiproliferative compounds” (Cyclacel Limited, priority 2001, dated 2008)
